This is an account of results in patent US20230099027A1 (priority 2020, published 2023).

For the experiment, the system named is H1N1 Neth09. The class given is cell-based, influenza A virus.

Regarding PEG8, the virucidal result is on record as “did not give virucidal results”.
